The values below come from PMC8365602 (Journal of Medicinal Chemistry, 2021).

Read-outs that look alike come from different tables or passages of the source.

As a reminder, the IC50 is the midpoint of a concentration-inhibition curve.

Data set [1] deals with T1, 5-LOX (Homo sapiens, UniProt P09917).
T1 sequence (P09917 1-674): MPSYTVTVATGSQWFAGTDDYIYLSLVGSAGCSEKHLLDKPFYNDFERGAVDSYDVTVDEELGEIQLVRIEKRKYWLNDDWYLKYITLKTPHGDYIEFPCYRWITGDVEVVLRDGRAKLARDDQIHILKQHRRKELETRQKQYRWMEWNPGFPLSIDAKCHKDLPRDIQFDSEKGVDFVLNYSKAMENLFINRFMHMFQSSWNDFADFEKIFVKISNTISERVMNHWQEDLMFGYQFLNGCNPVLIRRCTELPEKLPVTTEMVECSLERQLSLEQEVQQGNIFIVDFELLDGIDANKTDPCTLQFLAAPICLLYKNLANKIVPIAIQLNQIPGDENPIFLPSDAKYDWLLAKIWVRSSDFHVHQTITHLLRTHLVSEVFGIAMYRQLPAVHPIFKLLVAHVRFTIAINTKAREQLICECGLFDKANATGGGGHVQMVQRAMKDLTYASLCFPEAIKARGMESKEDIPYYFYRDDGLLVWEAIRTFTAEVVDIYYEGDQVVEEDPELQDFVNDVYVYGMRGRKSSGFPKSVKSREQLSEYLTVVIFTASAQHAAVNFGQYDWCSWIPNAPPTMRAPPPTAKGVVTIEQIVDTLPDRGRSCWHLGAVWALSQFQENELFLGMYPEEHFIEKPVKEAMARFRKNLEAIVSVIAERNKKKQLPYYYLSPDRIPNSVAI
The data set is described as follows: 5-LOX product formation in activated PMNL.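 Note: freshly isolated human PMNL in PBS pH 7.4 plus glucose, preincubated 10 min at 37 °C with compound, 5-LOX products (all-trans LTB4 isomers, 5-HETE) quantified by RP-HPLC.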
Method: These volunteers regularly donated blood (every 8–12 weeks) and were physically inspected by a clinician.
Erythrocytes were removed by dextran sedimentation and hypotonic lysis. PMNL were obtained from the cell pellet and platelets from the supernatant.
Freshly isolated PMNL (5 × 10^6) suspended in PBS pH 7.4 with 1 mg/mL glucose or freshly withdrawn human whole blood were preincubated with the test compounds for 10 min (or as indicated) at 37 °C. […] The reaction was stopped with an equal volume of methanol.

The test system of data set [2] is mice sensitized to ovalbumin. As to the kind of experiment: Experimental model of murine asthma (ovalbumin sensitization). Type of data set: in vivo. The note with it: 10 mg/kg p.o. Here is the method: (§1) Male CD-1 mice (33–39 g, 6–8 weeks, Charles River Laboratories; Calco, Italy) and female BALB/c mice (20 g, 8 weeks, Charles River Laboratories) were fed with standard rodent chow and water and acclimated for 4 days at a 12 h light and 12 h dark schedule in a constant air-conditioned environment (21 ± 2 °C). Mice were randomly assigned to groups, and experiments were carried out during the light phase.
BALB/c mice received 27a (p.o.) or vehicle (0.5% carboxymethylcellulose in 10% Tween 20; 0.5 mL) on days 0 and 7, 1 h (p.o) before being sensitized to ovalbumin (100 μg adsorbed to 3.3 mg of aluminum hydroxide gel, s.c., Sigma-Aldrich). Mice were sacrificed on days 1, 3, 8, 10, or 21 to collect lung and plasma. Bronchi were cut in rings of 1 to 2 mm length, placed in organ baths, and fixed to an isometric force transducer 7006 connected to a Powerlab 800 (AD Instruments, Ugo Basile, Comerio, Italy). After stretching the rings to a resting tension of 0.5g and equilibration for at least 30 min, the rings were challenged with carbachol (1 μM) until a reproducible response was observed. To assess bronchial reactivity, the cumulative response to carbachol (0.001 to 3.16 μM) was measured. Bronchial relaxation was determined from the cumulative response of precontracted bronchial tissues to salbutamol. Compound 27a, LTB4, and LTB4 isomers were analyzed in plasma and lung homogenates by UPLC-MS/MS. Lung tissue (100 mg/mL) was homogenized in PBS pH 7.4 at 4 °C for 1–2 min using an Omni tissue homogenizer (Omni, Kennesaw, GA).

Data set [3] has as its system zymosan-induced murine peritonitis. As to the kind of experiment: Zymosan-induced peritonitis in mice. The format is in vivo. Here is the method: as §1
Zymosan (2 mg/mL in saline, i.p., 0.5 mL, Sigma-Aldrich) was injected at 30 min (i.p.) or 60 min (p.o.) post compound administration. Mice were sacrificed by inhalation of CO2 after another 30 min to determine LTC4 levels, lipid mediator profiles, metabolites, and vascular permeability and after 4 h to analyze LTB4 levels and cell infiltration.[72] Plasma and peritoneal exudates were collected, and cells were counted in exudates after trypan blue staining. Vascular permeability was measured by injection of Evans blue dye (40 mg/kg in saline, 0.3 mL, Sigma-Aldrich) into the tail vain directly before peritonitis induction.[72] The exudate was centrifuged (3000g, 5 min), and the absorbance was measured at 610 nm (DU730 spectrophotometer, Beckman Coulter, Krefeld, Germany). Levels of LTB4 and cysteinyl-LTs (dominated by LTC4) were quantified in the exudate by ELISA (Enzo Life Sciences, Lörrach, Germany) according to the manufacturer’s instructions. Compound 27a, its metabolites, and lipid mediators were extracted and analyzed by UPLC-MS/MS.

Data set [4] relates to PBMC. As to the kind of experiment: PBMC viability (MTT, mitochondrial dehydrogenase activity). The format is cell-based, human. Conditions: ≤1 μM, 24 h. Here is the method: To measure mitochondrial dehydrogenase activity, 3-(4,5-dimethylthiazol-2-yl)-2,5-diphenyltetrazolium bromide (MTT) (20 μL, 5 mg/mL, Sigma-Aldrich) was added to PBMC. After 4 h in the darkness, the formed formazan product was solubilized (10% SDS in 20 mM HCl) and the absorbance was read at 570 nm using a Multiskan Spectrum microplate reader (Thermo Fisher Scientific).[81]

Data set [5] concerns the target mPGES-1 (Homo sapiens, UniProt O14684). The data set is described as follows: mPGES-1 activity in microsomal preparations of IL-1β-treated A549 cells. Type of data set: biochemical. Conditions: 10 μM. Here is the method:
Confluent cells were detached by trypsin-EDTA (GE Healthcare) and reseeded at a density of 1 × 10^4 cells/cm^2.
Differential centrifugation at 10 000g for 10 min and 174 000g for 1 h at 4 °C yielded the microsomal fraction. The pellet was resuspended in homogenization buffer and diluted in 0.1 M potassium phosphate buffer pH 7.4 containing 2.5 mM glutathione. Microsomal membranes (adjusted to 2.5–5 μg total protein) were preincubated with 27a for 15 min at 4 °C. The mPGES-1 substrate PGH2 (20 μM) was added to induce PGE2 formation.

Data set [6] addresses triple mutant Trp13Ala, Trp75Ala, and Trp102Ala 5-LOX (3W) (Homo sapiens, UniProt P09917, W103A/W14A/W76A). The data set is described as follows: Cell-free activity of 5-LOX triple mutant (3W).
Method: Human recombinant 5-LOX was expressed in E. coli Bl21 (DE3) cells that were transformed with pT3–5LOX (wt 5-LOX), 5-LOX_3W (triple mutation of Trp102Ala/Trp13Ala/Trp75Ala), or 5-LOX_R (single mutant of the Arg101Asp plasmid) and purified on an ATP-agarose column (Econo-Pac, Bio-Rad, Hercules, CA) by affinity chromatography.[6],[75]
Purified 5-LOX (0.5 μg in PBS pH 7.4 containing 1 mM EDTA and 1 mM ATP) was preincubated with the vehicle (DMSO) or test compounds for 10 min and prewarmed at 37 °C.
Where [7] appears, read: 10 mg/kg i.p., 30 min post zymosan.
Setting [8] is: 10 mg/kg i.p., 4 h post zymosan.

Chain of triple mutant Trp13Ala, Trp75Ala, and Trp102Ala 5-LOX (3W) (P09917 whole entry W14A/W76A/W103A): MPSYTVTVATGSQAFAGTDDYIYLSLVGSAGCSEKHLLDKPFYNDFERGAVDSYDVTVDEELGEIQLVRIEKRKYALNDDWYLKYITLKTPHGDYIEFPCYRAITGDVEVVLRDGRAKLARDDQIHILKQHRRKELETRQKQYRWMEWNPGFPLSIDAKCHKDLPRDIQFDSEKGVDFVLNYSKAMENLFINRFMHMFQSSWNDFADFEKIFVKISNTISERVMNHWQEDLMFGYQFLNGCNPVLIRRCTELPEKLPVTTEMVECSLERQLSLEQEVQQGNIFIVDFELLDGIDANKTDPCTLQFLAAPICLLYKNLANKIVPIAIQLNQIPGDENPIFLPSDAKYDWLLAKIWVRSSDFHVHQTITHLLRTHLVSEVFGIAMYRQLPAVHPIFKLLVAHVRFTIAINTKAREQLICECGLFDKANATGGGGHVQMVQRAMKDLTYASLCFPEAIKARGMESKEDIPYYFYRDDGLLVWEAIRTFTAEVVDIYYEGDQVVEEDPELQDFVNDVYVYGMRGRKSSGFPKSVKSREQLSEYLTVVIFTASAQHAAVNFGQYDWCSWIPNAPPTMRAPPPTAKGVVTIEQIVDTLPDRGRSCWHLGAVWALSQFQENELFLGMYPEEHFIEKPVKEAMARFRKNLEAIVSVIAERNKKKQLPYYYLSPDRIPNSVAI
Chain of mPGES-1 (O14684 whole entry): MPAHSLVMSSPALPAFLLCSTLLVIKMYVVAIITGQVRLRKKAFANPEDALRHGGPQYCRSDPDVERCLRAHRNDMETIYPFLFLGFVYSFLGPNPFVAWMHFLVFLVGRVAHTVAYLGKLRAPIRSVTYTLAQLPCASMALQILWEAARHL

For `C/C(=C\CC/C(C)=C/CC[C@]1(C)CCc2c(C)c(O)c(C)c(C)c2O1)CCC=C(CO)CO` [Compound 27a, α-amplexichromanol], in data set [1] (PMNL, read-out: 5-LOX PMNL residual activity at 3 μM), the remaining activity at 3 µM was 0.5 ± 0.1%. The IC50 in data set [1] (read-out: 5-LOX PMNL IC50, 5-LOX product formation in activated PMNL, mean ± SEM) is 40 ± 10 nM. In data set [1] (read-out: IC50, 5-LOX product formation in PMNL, A23187), the IC50 came to 50 nM. For the same molecule, the “Lung levels of LTB4 and its isomers” value in data set [2] (day 3) was “lowered lung levels of LTB4 and its isomers”. Further, in data set [2] (day 21), the “Adrenergic bronchial relaxation induced by salbutamol” value was “fully restored the adrenergic bronchial relaxation induced by salbutamol” and the “Ovalbumin-induced bronchial hyperreactivity to carbachol” value is “blocked ovalbumin-induced bronchial hyperreactivity to carbachol”. The “Cysteinyl-LTs in the exudate” value in data set [3] (3 mg/kg p.o., 30 min post zymosan) is given as “decreased to a basal level”. Further, in data set [3] (setting [7]), the “LTC4 levels in the exudate” value is “strongly decreased LTC4 levels in the exudate” and the Vascular permeability entry is recorded as “reduced vascular permeability”. Also, in data set [3] (setting [8]), the “Influx of cells into the peritoneal cavity” value is recorded as “accordingly reduced” and the “LTB4 levels in the exudate” value was “substantially lowered LTB4 levels”. In data set [3] (10 mg/kg p.o., 30 min post zymosan injection, individual mice), the “Resolvin E3 levels in the exudate” value was “moderately increased”. For the same molecule, the “Mitochondrial dehydrogenase activity in PBMC (cell viability)” value in data set [4] was “impaired neither mitochondrial dehydrogenase activity”. Moreover, the mPGES-1 activity result in data set [5] is recorded as “decreased mPGES-1 activity”. In addition, the “Effect of Trp102Ala/Trp13Ala/Trp75Ala triple mutation on 5-LOX inhibition” value in data set [6] was “failed to affect 5-LOX inhibition”.
